Measured values as given in US9540364B2, “Benzimidazole tetrahydrofuran derivatives” (Merck Sharp & Dohme Corp., priority 2012, dated 2017).

Tests used:
[1] = molecular target: recombinant human AMPK complex 7 (containing α2β1γ1) (Homo sapiens (Human), UniProt P54646+Q9Y478); assay: In vitro AMPK activation assay (AMPKSAMSF); format: biochemical; settings: for EC50: inflection point reflecting 50% of the maximum activation; for Emax: recombinant human AMPK complex 7 (α2β1γ1), 10-point titration, read-out: % Maximum AMP Activation of human AMPK Complex 7
Chain of recombinant human AMPK complex 7 (containing α2β1γ1) (P54646 whole entry): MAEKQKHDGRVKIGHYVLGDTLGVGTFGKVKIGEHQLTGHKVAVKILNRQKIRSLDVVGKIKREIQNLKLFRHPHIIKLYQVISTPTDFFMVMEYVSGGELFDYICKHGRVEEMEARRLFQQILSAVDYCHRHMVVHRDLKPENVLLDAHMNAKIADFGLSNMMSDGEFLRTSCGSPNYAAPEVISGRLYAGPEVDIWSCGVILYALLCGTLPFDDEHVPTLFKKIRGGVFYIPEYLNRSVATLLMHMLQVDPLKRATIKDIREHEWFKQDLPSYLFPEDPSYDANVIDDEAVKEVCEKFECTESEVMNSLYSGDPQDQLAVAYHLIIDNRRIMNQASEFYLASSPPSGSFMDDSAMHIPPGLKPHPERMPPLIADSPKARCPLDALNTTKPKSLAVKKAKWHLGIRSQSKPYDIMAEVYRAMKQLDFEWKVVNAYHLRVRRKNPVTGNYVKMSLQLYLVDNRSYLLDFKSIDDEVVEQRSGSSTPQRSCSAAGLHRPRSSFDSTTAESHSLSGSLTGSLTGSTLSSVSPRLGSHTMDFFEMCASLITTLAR
Chain of recombinant human AMPK complex 7 (containing α2β1γ1) (Q9Y478 whole entry): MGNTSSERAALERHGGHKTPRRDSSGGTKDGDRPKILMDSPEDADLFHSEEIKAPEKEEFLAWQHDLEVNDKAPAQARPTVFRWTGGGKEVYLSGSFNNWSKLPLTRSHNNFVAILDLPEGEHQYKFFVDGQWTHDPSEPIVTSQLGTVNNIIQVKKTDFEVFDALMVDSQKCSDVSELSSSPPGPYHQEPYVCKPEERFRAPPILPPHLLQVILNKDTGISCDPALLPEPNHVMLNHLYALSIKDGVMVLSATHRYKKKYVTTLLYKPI
Chain of recombinant human AMPK complex 7 (containing α2β1γ1) (P54619 whole entry partner): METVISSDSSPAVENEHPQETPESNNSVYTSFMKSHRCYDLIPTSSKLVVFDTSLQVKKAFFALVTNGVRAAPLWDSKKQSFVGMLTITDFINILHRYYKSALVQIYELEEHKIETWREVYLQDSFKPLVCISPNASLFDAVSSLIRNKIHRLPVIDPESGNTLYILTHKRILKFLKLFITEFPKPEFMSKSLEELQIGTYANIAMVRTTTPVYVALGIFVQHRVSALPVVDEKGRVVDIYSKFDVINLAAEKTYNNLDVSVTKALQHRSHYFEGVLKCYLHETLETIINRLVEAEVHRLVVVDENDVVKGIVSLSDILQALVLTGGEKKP
Protocol: The recombinant human AMPK complex 1 (containing α1β1γ1) or AMPK complex 7 (containing α2β1γ1) was obtained from baculovirus expression system. Recombinant viruses were generated by cotransfection of AMPK/pBacPak9 clones with Baculogold baculovirus DNA (Pharmingen) in spodoptera frugiperda 21 cells according to the manufacturer's instructions. Each round of virus amplification was performed for 5 days in Grace's medium containing 10% serum. Virus that had been subjected to three rounds of amplification was used for all protein production procedures. To express the AMPK complex, sf21 cells were adapted to serum free medium (SF900 II, Invitrogen) by sequential dilution from serum containing stocks into SF900II medium and maintained in shaker flasks at 90 rpm at 27° C. The recombinant AMPK enzyme complex was produced by triple infection, one recombinant virus for each of the subunits, in sf21 cells under serum free conditions. Cells were infected in log phase, 1×10^6 cells/ml, at a multiplicity of infection of ˜5. Cells were harvested by centrifugation at 10,000×g for 15 minutes after 72 hours of infection with viruses. The insect cell pellet from 2 liters of culture was resuspended in 50 ml lysis buffer (20 mM Tris-HCl, 50 mM NaCl, 50 mM NaF, 30 mM Na PPi, 0.25 M sucrose, 10 mM ZnCl2, 2 mM DTT, 0.4 mg/ml digitonin) and subjected to two cycles of freeze-thaw lysis in a dry-ice ethanol bath. Insoluble material was removed by centrifugation at 10,000×g and the supernatant was fractionated with use of polyethylene glycol (PEG). The protein fraction precipitating between 2.5 and 6% PEG was used for further purification using a Blue-Sepharose step (Zhou et al, J. Clin. Invest. 108, 1167-1174, 2001).
The in vitro AMPK activation assay is performed in a volume of 30 μl in a 384-well plate. Enzyme reactions were assembled in the microtiter plate by adding 15 μl of 2× enzyme in assay buffer (20 mM HEPES, pH 7.3, 5 mM MgCl2, 3 mM DTT, 0.01% Brij 35 and CamK Kinase, to activate AMPK) to wells which contained either DMSO or compound. The reaction was initiated with the addition of 15 μl 2× substrate mixture containing 200 μM ATP, and 3.0 μM fluorescently labeled SAMS (5-FAM-HMRSAMSGLHLVKRR-COOH) in assay buffer. After 45-minute incubation at 25° C., the reaction was stopped by the addition of 70 μl stop buffer (100 mM HEPES, pH 7.3, 40 mM EDTA, 0.015% Brij 35). Phosphorylated 5-FAM SAMS product is assessed using a Caliper EZ Reader LabChip microfluidics reader. Product conversion is determined by calculating the peak heights of the substrate and product and reporting the product/(product+substrate) peak ratio. The 10-point titration data were expressed as % maximum AMP activation. The results were plotted using 4 parameter fit and the inflection point reflecting 50% of the maximum activation was reported as the EC50.

ob/ob and db/db mice = settings: following 8 weeks of administration; cited from earlier work

SMILES | EC50 [1] [nM] | Emax [1] [%] | blood glucose reduction (ob/ob and db/db mice) [%]
OC[C@H]1OC[C@@H](Oc2nc3cc(-c4ccc(-c5ccccc5)cc4)c(Cl)cc3[nH]2)[C@@H]1O [Example 1, (2R,3R,4R)-4-[[6-chloro-5-(4-phenylphenyl)-1H-benzimidazol-2-yl]oxy]-2-(hydroxymethyl)tetrahydrofuran-3-ol] | 216 | 301 | –
OC[C@H]1OC[C@@H](Oc2nc3cc(-c4ccc(-c5ccc(C6CNCCO6)cc5)cc4)c(Cl)cc3[nH]2)[C@@H]1O (stereo partly drawn) [Example 10] | 34 | 210 | –
CNC(=O)c1ccc(-c2ccc(-c3cc4nc(O[C@@H]5CO[C@H](CO)[C@H]5O)[nH]c4cc3Cl)cc2)cc1 [Example 3] | 8 | 262 | –
CC(CO)(CO)c1ccc(-c2ccc(-c3cc4nc(O[C@@H]5CO[C@H](CO)[C@H]5O)[nH]c4cc3Cl)cc2)cc1 [Example 8] | 5 | 278 | –
OC[C@H]1OC[C@@H](Oc2nc3cc(-c4ccc(-c5ccc(-c6nccs6)cc5)cc4)c(Cl)cc3[nH]2)[C@@H]1O [Example 12] | 76 | 170 | –
OC[C@H]1OC[C@@H](Oc2nc3cc(-c4ccc(-c5cccc(F)c5)cc4)c(Cl)cc3[nH]2)[C@@H]1O [Example 2] | 4290 | 137 | –
NC(=O)c1ncn([C@@H]2O[C@H](CO)[C@@H](O)[C@H]2O)c1N [AICAR] | – | – | 35
OC[C@H]1OC[C@@H](Oc2nc3cc(-c4ccc(-c5ccc(-n6cccn6)cc5)cc4)c(Cl)cc3[nH]2)[C@@H]1O [Example 9] | 33 | 269 | –
Cc1cc(-c2ccc(-c3ccc(-c4cc5nc(O[C@@H]6CO[C@H](CO)[C@H]6O)[nH]c5cc4Cl)cc3)cc2)[nH]n1 [Example 4] | 104 | 172 | –
OC[C@H]1OC[C@@H](Oc2nc3cc(-c4ccc(-c5ccc(-n6ccnn6)cc5)cc4)c(Cl)cc3[nH]2)[C@@H]1O [Example 7] | 8 | 233 | –

Now from value to compound, other results behind:

EC50 [1] [nM] | Emax [1] [%] | SMILES | blood glucose reduction (ob/ob and db/db mice) [%]
20 | 313 | OC[C@H]1OC[C@@H](Oc2nc3c(F)c(-c4ccc(-c5ccc(-n6cccn6)cc5)cc4)c(F)cc3[nH]2)[C@@H]1O [Example 17] | –
50 | 246 | Cc1cc(-c2ccc(-c3ccc(-c4c(F)cc5[nH]c(O[C@@H]6CO[C@H](CO)[C@H]6O)nc5c4F)cc3)cc2)[nH]n1 [Example 20] | –
5 | 283 | OC[C@H]1OC[C@@H](Oc2nc3c(F)c(-c4ccc(-c5ccc(-n6ccnn6)cc5)cc4)c(F)cc3[nH]2)[C@@H]1O [Example 13] | –
67 | 251 | OC[C@H]1OC[C@@H](Oc2nc3c(F)c(-c4ccc(-c5ccc(-c6nccs6)cc5)cc4)c(F)cc3[nH]2)[C@@H]1O [Example 19] | –
209 | 288 | N#Cc1ccc(-c2ccc(-c3cc4nc(O[C@@H]5CO[C@H](CO)[C@H]5O)[nH]c4cc3Cl)cc2)c(F)c1 [Example 5] | –
4 | 340 | CNC(=O)c1ccc(-c2ccc(-c3c(F)cc4[nH]c(O[C@@H]5CO[C@H](CO)[C@H]5O)nc4c3F)cc2)cc1 [Example 14] | –
3 | 299 | OC[C@H]1OC[C@@H](Oc2nc3c(F)c(-c4ccc(-c5ccc(-c6nccc(O)n6)cc5)cc4)c(F)cc3[nH]2)[C@@H]1O [Example 15] | –
34 | 316 | OC[C@H]1OC[C@@H](Oc2nc3c(F)c(-c4ccc(-c5ccc(C6CNCCO6)cc5)cc4)c(F)cc3[nH]2)[C@@H]1O (stereo partly drawn) [Example 18] | –
38 | 230 | N#Cc1ccc(-c2ccc(-c3c(F)cc4[nH]c(O[C@@H]5CO[C@H](CO)[C@H]5O)nc4c3F)cc2)c(F)c1 [Example 21] | –
6 | 313 | CC(CO)(CO)c1ccc(-c2ccc(-c3c(F)cc4[nH]c(O[C@@H]5CO[C@H](CO)[C@H]5O)nc4c3F)cc2)cc1 [Example 16] | –
